Data as given in publication PMC2694832, “Pharmacokinetics, tissue distribution and mass balance of radiolabeled dihydroartemisinin in male rats” (Malaria Journal, 2009).
Like-named read-outs stand apart in the source and are kept apart here. Blank lines part the entries; values can stand above or below the molecule they belong to.

How the values were obtained:
[1] = rats; cited from earlier work
[2] = Pharmacokinetic study of [^14C] DHA and unchanged DHA, single i.v. dose; assay type: in vivo, rats
Experimental: Traditional PK studies involve intermittent blood sampling and subsequent determination of drug concentrations in whole blood and plasma. The Culex automated blood sampler provides a way for blood withdrawal at preprogrammed intervals, which is more accurate and less labor intensive. Six rats in the PK group were implanted with a jugular vein catheter under an isofluorane anesthaesia. After the surgery, rats were allowed to recover for 96 hours with free access to food and water. The rats were dosed single i.v. at 3 mg/ml/kg with [^14C] DHA (20 μCi/kg), which was prepared as a 25% cremophore/0.9% saline solution, through the tail vein. […] PK evaluation of [^14C] DHA in plasma and whole blood, as well as unchanged DHA in plasma was conducted in individual rats.
Total radioactivity in the collected tissue samples were quantified in duplicate. Weighed tissue aliquots (~0.2 g) were digested overnight in 2 ml of Solvable® tissue solubilizer (Perkin-Elmer Life and Analytical Sciences, Boston, MA) at 50°C. Coloured samples were decolourized by adding a maximum of 0.2 ml of 30% H2O2 for 30–60 minutes. Scintillation cocktail (Hyonic Fluor; Perkin-Elmer Boston. Massachusetts, USA) was then added and radioactivity determined in a Perkin-Elmer Tri-Carb 3100 TR scintillation spectrophotometer (Packard Instrument Co., Downers Grove, Illinois, USA). Faeces and intestinal contents were thoroughly homogenized before taking aliquots. Plasma was also analysed using the HPLC-ECD system to measure the concentration of unchanged DHA, as described by Li et al.
The analysis of cold DHA in plasma was performed according to a previously described HPLC method with the following modifications: for simultaneous determination of artemisinin and DHA (artemisinin as an internal standard), the Agilent Eclipse XDB-C18 column 5 μm (4.6 × 150 mm) was used with an isocratic mobile phase consisting of 40% acetonitrile: 60% ESA Acid Metabolite A (70–4835) in the reductive mode (-400 mV) for the quantification of DHA. Validation and reproducibility were evaluated and a lower limit of quantitation (LLQ) of 2.31 ng/ml for DHA was determined. The inter- and intra-day coefficient of variation for accuracy and precision were all within ± 10%.
For pharmacokinetics, the concentration-time data of [^14C] DHA in plasma and whole blood collected during the 192 hour treatment period was fitted to a three-compartment open model using a nonlinear, extended least-square fitting procedure (WinNonlin 5.2, Pharsight Corporation, Cary, NC) using weighted (1/concentration) nonlinear regression. The area under the curve (AUC) was determined by the linear trapezoidal rule with extrapolation to infinity based on the concentration of the last time point divided by the terminal rate constant. Extrapolations to time zero were done using zero concentration for intravenous dosing and using C0 values determined from the three-compartment model equation at time zero by i.v. route. Mean clearance rate (CL) was determined by dividing the dose by the AUCinf for i.v. injection. Mean residence time (MRT) was determined by dividing the area under the first moment curve (AUMC) by the AUC. The volume of distribution at steady state (Vss) was calculated as the product of CL and MRT. The concentration-time data of unchanged DHA was fitted to a two-compartment open model. Statistical analysis was conducted with Microsoft Excel using a Student's t-test for dependent samples to compare means of paired and unpaired samples between two groups.

[3] = Mass balance and urinary/faecal elimination of [^14C] DHA; assay type: in vivo, rats; settings: rats i.v.
Experimental: Metabolic cages were washed with a solution of 2% Count-off® (Perkin-Elmer Life and Analytical Sciences, Boston, Massachusetts, USA) and the volume was measured. Duplicate portions (0.1 ml urine; 1 ml cage rinse) of each sample were radio-assayed after the addition of scintillation cocktail. The weights of individual faecal samples were obtained and the samples were subsequently homogenized in four volumes of de-ionized water. Quadruplicate portions (1.0 ml) of each homogenate were decolourized with 30% hydrogen peroxide, and digested with Solvable® tissue solubilizer. After acidification with glacial acetic acid and addition of scintillation cocktail, samples were assayed for radioactivity. The samples were kept in at -20°C for two weeks prior to analysis.

rat plasma proteins = experiment: Protein binding of [^14C] DHA, equilibrium dialysis, rat plasma; assay type: in vitro ADME
Experimental: (§1) Human blood samples (five men and five women) were freshly obtained from subject volunteers at the Department of Clinical Trials, WRAIR. Rat samples were freshly collected from five male and five female rats. Equilibrium dialysis was performed using Teflon dialysis chambers and Diachema standard membranes as described by Li and Hümpel. The GD-4/90 Equilibrium Dialyzer (MM Developments, Ottawa) contained 20 micro-dialysis cells (2.0 ml/chamber). The molecular weight cutoff for dialysis membranes was 5000 D. Equilibrium was reached after four hours, when cells were rotated at 16 rpm and 37°C. Drugs were dissolved in plasma samples with various concentrations (0.15 – 57800 ng/ml) and all experiments were carried out for five hours.

human plasma proteins = experiment: Protein binding of [^14C] DHA, equilibrium dialysis, human plasma; assay type: in vitro ADME; settings: both sexes; undiluted human plasma, 0.15 to 57800 ng/ml, 37°C, five hours; read-out: plasma protein binding percentage
Experimental: as §1

[4] = unchanged DHA in plasma, rats single i.v. 3 mg/kg

Compound: C[C@H]1[C@H](OC(=O)CCC(=O)O)O[C@@H]2O[C@@]3(C)CC[C@H]4[C@H](C)CC[C@@H]1[C@@]24OO3 [Artesunate]
plasma half-life of unchanged AS, first phase [1]: 8.4 min

AUC(0-inf) ([2]; rat, iv, unchanged DHA in plasma, two-compartment, rats single i.v. 3 mg/kg): 933 ± 125 ng·h/mL
MRT ([2]; rat, iv, unchanged DHA in plasma, two-compartment, rats single i.v. 3 mg/kg, read-out: MRT): 29.4 ± 7.2 min
Vd ([2]; rat, iv, unchanged DHA in plasma, two-compartment, rats single i.v. 3 mg/kg, read-out: Vss): 1.66 ± 0.54 L/kg
AUC ([2]; rat, iv, unchanged DHA in plasma, rats i.v. 3 mg/kg): 933 ng·h/mL
Tmax ([2]; rat, iv, unchanged DHA in plasma, rats single i.v. 3 mg/kg, read-out: Tmax): 1.2 min
clearance ([2]; rat, plasma, iv, 3 mg/kg, unchanged DHA in plasma, two-compartment, rats single i.v. 3 mg/kg): 55.8 mL/min/kg
Cmax ([2]; rat, plasma, iv, 3 mg/kg, unchanged DHA in plasma, two-compartment, rats single i.v. 3 mg/kg, read-out: Cmax): 2000 ± 507 ng/mL
half-life ([2]; rat, plasma, iv, 3 mg/kg, unchanged DHA in plasma, two-compartment, rats single i.v. 3 mg/kg, read-out: t1/2 – alpha (converted)): 15 ± 2.4 min
half-life ([2]; rat, plasma, iv, 3 mg/kg, unchanged DHA in plasma, two-compartment, rats single i.v. 3 mg/kg, read-out: t1/2 – beta (terminal) (converted)): 61.8 ± 11.4 min
Cmax ([2]; rat, plasma, iv, 3 mg/kg, unchanged DHA in plasma, rats single i.v. 3 mg/kg, read-out: Cmax at first peak): 2000 ± 507 ng/mL
Cmax ([2]; rat, plasma, iv, 3 mg/kg, unchanged DHA in plasma, rats single i.v. 3 mg/kg, read-out: Cmax at second peak): 1640 ± 468 ng/mL
duration of total radioactivity (long-lasting metabolites) ([2]; rats, plasma, urine and faeces, single i.v. 3 mg/20 μCi/kg): > 192 h
time to complete elimination of unchanged DHA ([2]; rats, single i.v. 3 mg/kg): ≤ 6 h
CL ([2]; unchanged DHA in plasma, two-compartment, rats single i.v. 3 mg/kg, 3 mg/kg): 55.8337 ± 7.0562 mL/min/kg
time of second peak ([2]; unchanged DHA in plasma, rats i.v. 3 mg/kg): 23 min
time of first peak [2, 4]: 0.02 h
time of second peak [2, 4]: 22.8 min
elimination via metabolism (hydrolysis and oxidation) [3]: 99%
unchanged DHA eliminated by direct excretion from kidneys [3]: < 1 % of dose
fraction unbound at 5 h (rat plasma proteins; both sexes, undiluted rat plasma, 0.15 to 57800 ng/ml, 37°C, five hours, read-out: plasma protein binding percentage): 0.18 to 0.24
dependence of binding capacity on drug concentration (rat plasma proteins; rat plasma): not significantly different
fraction unbound at 5 h (human plasma proteins): 0.18 to 0.24
Compound: C[C@H]1[C@@H](O)O[C@@H]2O[C@@]3(C)CC[C@H]4[C@H](C)CC[C@@H]1[C@@]24OO3 [DHA, 10'dihydro-artemisinin]
